This note sets out measurements from patent US5939403A, “Keratan sulfate oligosaccharide fraction and pharmaceutical containing the same” (Seikagaku Corporation, priority 1994, dated 1999).

The structures appear in SMILES notation. Counter-ions that a name gives are not always drawn.

One test deals with MRL-lpr/lpr mice. Description: Repeated intramuscular administration for 28 days in MRL mice (submandibular lymph node weight). Format: in vivo. Here is the method:
The effect of the keratan sulfate oligosaccharide was examined on MRL mice which are autoimmune disease model mice.
The PBS solution of the purified keratan sulfate disaccharide (III) which was prepared in Example 1 described above at a dose of 1 mg/kg, 5 mg/kg, or 25 mg/kg weight (hereinafter referred to as the 1 mg/kg administered group, the 5 mg/kg administered group, and the 25 mg/kg administered group, respectively), and PBS as the control (hereinafter sometimes referred to as the control group) was intramuscularly injected, respectively, to the femoral region of MRL-lpr/lpr mice seven times a week for four weeks. After that, the mice were subjected to anatomization, and the weight of submandibular lymph nodes was determined to obtain the average weight. In each group, six mice were used. Further, in the figure, * represents that it has the significant difference with p<0.05 (wherein "p" means a level of significance by the Bonferroni multiple comparative test).

The test system of test [1] is mesenteric lymph node and submandibular lymph node. Description: Cell differentiation induction: staining concentration of lymph node sections (HE staining). The test is classed as in vivo, MRL-lpr/lpr mice. The conditions noted are these: four weeks. Here is the method:
The PBS solution of the purified keratan sulfate disaccharide (III) which was prepared in Example 1 described above at a dose of 1 mg/kg, 5 mg/kg, or 25 mg/kg weight (hereinafter referred to as the 1 mg/kg administered group, the 5 mg/kg administered group, and the 25 mg/kg administered group, respectively), and PBS as the control (hereinafter sometimes referred to as the control group) was intramuscularly injected, respectively, to the femoral region of MRL-lpr/lpr mice seven times a week for four weeks. After that, the mice were subjected to anatomization to prepare the section specimens (HE staining) of mesenteric lymph node and submandibular lymph node. The staining concentrations per unit area of the specimens were analyzed by an image analyzer (PIAS). In the undifferentiated cells, the staining concentration per unit area is low because proportion of the cytoplasm is high and the nuclei is stained thinly. In the differentiated cells, the staining concentration per unit area is high because proportion of the nuclei is high and it is stained thickly.
The results of the analysis of mesenteric lymph nodes and submandibular lymph nodes are shown in FIG. 17 and FIG. 18 with the standard errors, respectively. In the figures, ** represents that it has the significant difference with p<0.01 (wherein "p" means a level of significance by the Bonferroni multiple comparative test). […]

Test [2] relates to submandibular lymph node. The test is described as follows: Apoptosis induction: TdT-mediated nick end labeling of submandibular lymph node. Format: in vivo, MRL-lpr/lpr mice. The conditions noted are these: four weeks. On the procedure:
The PBS solution of the purified keratan sulfate disaccharide (III) which was prepared in Example 1 described above at a dose of 1 mg/kg, 5 mg/kg, or 25 mg/kg weight (hereinafter referred to as the 1 mg/kg administered group, the 5 mg/kg administered group, and the 25 mg/kg administered group, respectively), and PBS as the control (hereinafter sometimes referred to as the control group) was intramuscularly injected, respectively, to the femoral region of MRL-lpr/lpr mice seven times a week for four weeks. After that, the mice were subjected to anatomization to prepare the section specimens of submandibular lymph node (stained by the method of Gavrieli et al.; Terminal deoxynucleotidyl transferase (TdT)--mediated nick end labeling method; (J. Cell Biol., 119, 493-501 (1992))). In this staining method, apoptosis induced cells can be detected by detecting fragmented DNA ends. The specimens prepared was observed by a light microscope to determine the number of stained cells (the apoptosis induced cells; hereinafter sometimes referred to as the apoptosis cells) per unit area. In the figure, * and ** represent that they have the significant difference with p<0.05 and p<0.01, respectively (wherein "p" means a level of significance by the Bonferroni multiple comparative test). In each group, six mice were used.

In test [3] the test system is submandibular lymph node. Description: Observation of apoptic body in submandibular lymph node sections (HE staining). The test is classed as in vivo, MRL-lpr/lpr mice. The note with it: any dose (1, 5, 25 mg/kg i.m.), four weeks.
Test [4] concerns papain-induced arthritis. Description: Papain-induced bilateral arthritis model, intra-articular administration (volume of synovial fluid). The test is classed as in vivo, Japanese white rabbits (female). The note with it: for Volume of Synovial Fluid: 7 days, n = 8, p < 0.05, control 729, normal 437. Here is the method: (§1) The anti-inflammatory effect of the keratan sulfate oligosaccharide with rabbits of the papain-induced arthritis model was examined using the volume of synovial fluid as an indication.
Into the articular cavity of both knee joint of Japanese white rabbits (female) of 3 kg weight, 150 μl of the saline solution of papain (1%) was injected to prepare the arthritis model. One day after injecting papain, 150 μl of the PBS solution of the purified keratan sulfate tetrasaccharide (I) (1% solution; 1.5 mg/joint) which was prepared in Example 1 was injected into the articular cavity of the left joint (hereinafter referred to as "the keratan sulfate tetrasaccharide (I) administered foot"), and 150 μl of PBS was injected into that of the right joint (hereinafter referred to as "the keratan sulfate tetrasaccharide (I) unadministered foot"). Hereinafter the rabbits subjected to administration of the keratan sulfate tetrasaccharide (I) are referred to as "the administered group". And the rabbits subjected to the papain injection only (hereinafter referred to as the control group) and the normal rabbits not subjected to the papain injection (hereinafter referred to as the normal group) were also examined in the same manner hereinafter.
Seven days after the injection, the blood was drawn from the auricular artery, and plasma containing heparin was separated. After drawing the blood, the rabbits were anatomized and the both knee joint were separated. The articular cavity was washed with 2 ml of saline three times to recover the synovial fluid. The calcium concentrations in the plasma and the recovered synovial fluid were determined, and the volume of synovial fluid was calculated from the following formula.
Volume of Synovial Fluid (ul/articulation)=Amount of Calcium in Recovered
Synovial Fluid (μg/articulation)/Concentration of Calcium in Plasma
In the table, "n" represents the number of rabbits in each group used in the experiment.

In test [5] the test system is papain-induced arthritis. The test is described as follows: Papain-induced bilateral arthritis model, intramuscular administration (volume of synovial fluid). The test is classed as in vivo, Japanese white rabbits (female). The note with it: 0.5 mg/kg intramuscular. On the procedure:
as §1
Into the articular cavity of both knee joint of Japanese white rabbits (female) of 3 kg weight, 150 μl of the saline solution of papain (1%) was injected to prepare the arthritis model. […]
Seven days after the injection, the blood was drawn from the auricular artery, and plasma containing heparin was separated. […] The calcium concentrations in the plasma and the recovered synovial fluid were determined, and the volume of synovial fluid was calculated from the following formula. […]
The arthritis model was prepared by the method described in (1-1), and one day after injecting papain, 150 μl of the PBS solution of the purified keratan sulfate tetrasaccharide (I) (1% solution; 0.5 mg/kg weight) which was prepared in Example 1 was injected into the hip muscle of the left side (hereinafter referred to as "the keratan sulfate tetrasaccharide (I) administered group"). […] Seven days after the injection, the volume of synovial fluid was calculated in the same manner as in (1-1).

Turning to `CC(=O)N[C@H]1C(O)O[C@H](COS(=O)(=O)O)[C@@H](O[C@@H]2O[C@H](COS(=O)(=O)O)[C@H](O)[C@H](O)[C@H]2O)[C@@H]1O` (stereo partly drawn) [keratan sulfate disaccharide (III), Gal(6S)β1-4GlcNAc(6S)], the “weight increase in submandibular lymph nodes (FIG. 14)” value in the test on MRL-lpr/lpr mice (5 mg/kg i.m., p<0.05) is reported as “a significant suppressive effect on the weight increase was observed compared with the control group”; in the test on MRL-lpr/lpr mice (any dose (1, 5, 25 mg/kg i.m.)), “a suppressive effect on the weight increase in submandibular lymph nodes was observed”. In addition, the “staining concentration per unit area (FIG. 17, FIG. 18)” value in test [1] (5 mg/kg and 25 mg/kg i.m., p<0.01) was “the staining concentrations increased significantly compared with the control group”; in test [1] (any dose (1, 5, 25 mg/kg i.m.)), “an increase in the staining concentration per unit area (decrease in relative lightness) was observed”. Moreover, the “number of the apoptosis cells (FIG. 22)” value is on record as “the number of the apoptosis cells increased significantly to the control group” with submandibular lymph node [2] (5 mg/kg i.m.) and “an increase in the number of the apoptosis cells was observed” with submandibular lymph node [2] (any dose (1, 5, 25 mg/kg i.m.)). For the same molecule, the “existence of the apoptic body” value with submandibular lymph node [3] is on record as “the scattering of the apoptic body was observed”.

Consider `CC(=O)N[C@H]1[C@H](O[C@H]2[C@@H](O)[C@@H](COS(=O)(=O)O)O[C@@H](O[C@H]3[C@H](O)[C@@H](NC(C)=O)C(O)O[C@@H]3COS(=O)(=O)O)[C@@H]2O)O[C@H](COS(=O)(=O)O)[C@@H](O[C@@H]2O[C@H](COS(=O)(=O)O)[C@H](O)[C@H](O)[C@H]2O)[C@@H]1O` (stereo partly drawn) [keratan sulfate tetrasaccharide (I), Gal(6S)β1-4GlcNAc(6S)β1-3Gal(6S)β1-4GlcNAc(6S)], for which the “Volume of Synovial Fluid” value with papain-induced arthritis [4] (Administered Foot, 1.5 mg/joint intra-articular, SD 147) stood at 530 µL; with papain-induced arthritis [4] (Unadministered Foot, 1.5 mg in other joint, SD 130), 537 µL; in the test on papain-induced arthritis [5] (7 days, n = 12, SD 65.8, p < 0.01, control 729, normal 437), 561 µL. The “volume of synovial fluid (result in words)” value in the test on papain-induced arthritis [4] (intra-articular, bilateral model) was “significantly less than that in the control group”; with papain-induced arthritis [5] (bilateral model), “significantly less than that in the control group”.
